The values that follow come from PubChem BioAssay AID602273 (Broad Institute, 2012).

In assay [1] the test system is S. cerevisiae alpha-synuclein toxicity rescue, OD600 growth, 24 h. Put plainly: rescue of alpha-synuclein yeast toxicity, dose response, S. cerevisiae, plate reader, cherry-pick (AID 602273).
Assay in assay [2]: as above
The following applies: S. cerevisiae alpha-synuclein toxicity rescue, OD600 growth, 24 h.

Calls of active or inactive are those of the source. The rule behind the calls is not given here. Where only a bound is given, the exact number is not on record here.

With `CC(C)c1ccc(C2NC(=O)c3ccccc3O2)cc1` (centres undefined), the AC40 in assay [1] is 12.1 µM.
The same measure, in the same setting: the value for `CSc1sc(C(=O)Nc2ccc(F)cc2F)c2c1C=CCC2` was > 26 µM (inactive); that for `CN1CCN(Cc2c(O)ccc3cc(Br)ccc23)CC1` was > 26 µM (inactive).
Same read-out and setting: the value for `CC1(C)CC(=O)C=C(NC2=CC3OC(c4ccccc4)OCC3OC2=O)C1` (centres undefined) was > 26 µM (inactive).
For the molecule `Cc1ccccc1CSc1nsc(N)n1`, in assay [1], the AC40 is 14.5 µM.
Same read-out and setting: in the case of `Cc1cc(-c2nc3ncccc3o2)ccc1NC(=S)NC(=O)C(C)C` it was > 26 µM (inactive).
For the molecule `COc1cccc(NC(=S)NC(=O)c2c(Cl)c(C)nn2C)c1`, the AC40 in assay [1] was > 26 µM (inactive).
Same read-out and setting: the value for `Cc1ccc2oc(C(=O)N3CCC(O)(c4cccc(C(F)(F)F)c4)CC3)c(C)c2c1` was > 26 µM (inactive).
On the same count and under the same terms, the value for `COc1cccc(CNc2ccc(Br)cn2)c1O` was > 26 µM (inactive); that for `O=c1[nH]c2ccccc2c2cn(-c3ccccc3)nc12` was 23.4 µM.
On the same count and under the same terms, the value for `O=c1c2sccc2nc(SCc2ccc([N+](=O)[O-])cc2)n1Cc1ccccn1` was > 26 µM (inactive).
With `COc1cccc(-c2nnc(SCc3nc4ccccc4[nH]3)n2N)c1`, in assay [2] (at 26 µM (top of the series)), the growth rescue activity is 1.34% (inactive).
For the molecule `O=C(Nc1ccc2c(c1)C(=O)OC2)c1ccc(Cl)cc1`, the growth rescue activity in assay [2] (at 26 µM (top of the series)) is -1.79% (inactive).
Same read-out and setting: the value for `CC(C)(C)c1ccc(COc2ccsc2C(=O)O)cc1` was -21.6% (inactive).
As for `COc1ccc(-c2nc3scc(-c4ccccc4)n3n2)cc1`, in assay [2] (at 26 µM (top of the series)), the growth rescue activity was -0.958% (inactive).
As to `Clc1ccc(SCc2csc(N3CCOCC3)n2)cc1`, the AC40 in assay [1] was > 26 µM (inactive).
Still for that read-out and setting: the value for `O=C1C=C(c2ccccc2)CC(/C=C/c2ccccc2)C1` (centres undefined) was > 12 µM (inactive).
Consider `CCc1c(C)sc(NC(=O)c2ccc(Br)o2)c1C(=O)OC`, for which, in assay [2] (at 26 µM (top of the series)), the growth rescue activity was 5.35% (inactive).
On the same count and under the same terms, in the case of `O=C(CCC1CCCN(C(=O)c2ccc3cc[nH]c3c2)C1)NCc1ccc(F)c(F)c1` (centres undefined) it was -2.77% (inactive); in that of `O=C1C2CC=CCC2C(=O)N1c1ccc(NCCc2ccccc2)c([N+](=O)[O-])c1` (centres undefined), 11.8% (inactive); in that of `Cn1c(=O)c(/C=C/c2ccc(F)cc2)nc2ccccc21`, 8.65% (inactive).
On the same count and under the same terms, in the case of `Cc1ccc(/C=C2\Oc3cc(OC(=O)N4CCOCC4)ccc3C2=O)cc1` it was -7.43% (inactive).
Same read-out and setting: in the case of `COc1ccccc1C(=O)CSc1nnc(-c2ccco2)o1` it was -9.45% (inactive); in that of `Cc1cc(C)n(CC(O)COc2ccc(Cl)cc2Cl)n1` (centres undefined), 9.05% (inactive).
`CCOC(=O)c1nnsc1Nc1ccc(C)c(C)c1`: the AC40 in assay [1] is > 26 µM (inactive).
Regarding `CC(=O)Nc1cccc(NC(=O)CSc2ncc(C(=O)Nc3ccccc3)c(=O)n2C)c1`, in assay [2] (at 26 µM (top of the series)), the growth rescue activity is -9.48% (inactive).
On the same count and under the same terms, the value for `COc1ccc(OCc2nnnn2-c2ccccc2)cc1` was -3.39% (inactive).
With `O=[N+]([O-])c1cccc(-c2ncc3ccccn23)c1`, the AC40 in assay [1] is > 26 µM (inactive).
For the molecule `O=C(CSc1nnc(-c2c[nH]c3ccccc23)n1-c1ccc(F)cc1)NCc1ccco1`, the growth rescue activity in assay [2] (at 26 µM (top of the series)) was 0.096% (inactive).
In the case of `CC(=O)N1N=C(c2ccccc2)CC1c1ccccc1[N+](=O)[O-]` (centres undefined), in assay [2] (at 26 µM (top of the series)), the growth rescue activity was 2.51% (inactive).
`Cc1ccc(O)c(CNc2nccs2)c1`: the growth rescue activity in assay [2] (at 26 µM (top of the series)) is 12% (inactive).
For `Cc1ccc(-n2cc(CNCCN3CCOC3=O)c(-c3cccc(C)c3)n2)cc1`, in assay [2] (at 26 µM (top of the series)), the growth rescue activity is 0.352% (inactive).
Consider `CCOC(=O)c1c(C)c(C(=O)Nc2ccc3c(c2)OCO3)c(C)n1C`, for which the growth rescue activity in assay [2] (at 26 µM (top of the series)) is 2.62% (inactive).
For the molecule `Cc1nc(SCCOc2ccc(F)cc2)c2ccccc2n1`, the growth rescue activity in assay [2] (at 26 µM (top of the series)) is -1.07% (inactive).
For `CCC1(C)N=C(N)Nc2nc3cc(C)c(C)cc3n21` (centres undefined), the growth rescue activity in assay [2] (at 26 µM (top of the series)) was -2.62% (inactive).
The same measure, in the same setting: the value for `CCOC(=O)Nc1ccc(C(=O)Oc2ccccc2)c(O)c1` was -4.86% (inactive); that for `O=C(/C=C/Sc1ccccc1)c1ccccc1` was 3.99% (inactive).
As to `O=C(NC1C(=O)NNC1c1ccccc1)c1ccccc1` (centres undefined), the growth rescue activity in assay [2] (at 12 µM (top of the series)) was 8.13% (inactive).
For the molecule `CC(C)OC(=O)c1ccc(COc2ccc3ccc(=O)oc3c2)o1`, the growth rescue activity in assay [2] (at 26 µM (top of the series)) is 2.08% (inactive).
Consider `Cc1ccc2cccnc2c1NC(=S)NC(=O)c1ccccc1`, for which the growth rescue activity in assay [2] (at 26 µM (top of the series)) was -4.6% (inactive).
For `O=C(O)CC1=C(Nc2ccccc2)C(=O)N(c2ccccc2)C1c1ccc(Cl)cc1` (centres undefined), the growth rescue activity in assay [2] (at 26 µM (top of the series)) was 7.05% (inactive).
Still for that read-out and setting: in the case of `COc1ccc(C(c2c(O)ccc3ccccc23)N2CCOCC2)c(OC)c1` (centres undefined) it was -24.5% (inactive); in that of `Cc1ccc(CN(C)C(=O)C2CCC(=O)N(CCc3ccccc3)C2)o1` (centres undefined), 1.41% (inactive); in that of `CC(C)(CNC(=O)/C=C/c1ccc(F)cc1)CNC(=O)/C=C/c1ccc(F)cc1`, 0.36% (inactive).
For the molecule `O=C(CSCc1ccc(Br)cc1)N1CCCC1`, the growth rescue activity in assay [2] (at 26 µM (top of the series)) was 0.808% (inactive).
On the same count and under the same terms, in the case of `O=C1C2CC=CCC2C(=O)N1Cc1nnc(-c2ccc(Cl)cc2)o1` (centres undefined) it was -2.43% (inactive).
As for `Cc1ccc(CNC(=O)CSc2ccsc2[N+](=O)[O-])cc1`, in assay [2] (at 26 µM (top of the series)), the growth rescue activity is 2.48% (inactive).
Consider `CCCSc1nnc(Sc2nnnn2-c2ccccc2)s1`, for which the growth rescue activity in assay [2] (at 26 µM (top of the series)) was 4.13% (inactive).
`CC(=O)c1ccc(NC(=O)CCCN2C(=O)/C(=C/C(C)=C/c3ccccc3)SC2=S)cc1`: the growth rescue activity in assay [2] (at 26 µM (top of the series)) was -5.11% (inactive).
Turning to `Fc1cc(NCc2ccccc2)nc(NCc2ccccc2)n1`, the AC40 in assay [1] was > 26 µM (inactive).
In the case of `O=C1NC(=O)[C@]2(Cc3ccccc3N3CCN(c4ccccc4)CC32)C(=O)N1Cc1ccccc1` (some centres undefined), in assay [2] (at 26 µM (top of the series)), the growth rescue activity was 3.15% (inactive).
On to `O=C1S/C(=C\c2ccc(N3CCOCC3)o2)C(=O)N1Cc1c(F)cccc1Cl`, for which, in assay [2] (at 26 µM (top of the series)), the growth rescue activity is -0.523% (inactive).
The same measure, in the same setting: in the case of `C[C@H](NC(=O)[C@@H]1CSC2c3ccccc3C(=O)N21)C(=O)NCCc1ccccc1` (some centres undefined) it was -5.08% (inactive).
For the molecule `O=C(CSc1nnc(-c2c[nH]c3ccccc23)o1)c1ccccc1`, the AC40 in assay [1] was > 26 µM (inactive).
